Laboratory results from US20210077498A1, “TRANSIENT PROTECTION OF HEMATOPOIETIC STEM AND PROGENITOR CELLS AGAINST IONIZING RADIATION” (G1 Therapeutics, Inc., priority 2015, published 2021).
Blank lines part the entries; values can stand above or below the compound they belong to.

Key:
[1] = system: A2058 (human metastatic melanoma cells, Rb-negative); assay: CellTiter-Glo cellular proliferation assay, A2058; type: cell-based; conditions: A2058, 144 h, six days
Protocol: (§1) Cellular proliferation assays were conducted using the following Rb-negative cancer cell lines: H69 (human small cell lung cancer—Rb-negative) cells or A2058 (human metastatic melanoma cells—Rb-negative). These cells were seeded in Costar (Tewksbury, Mass.) 3093 96 well tissue culture treated white walled/clear bottom plates. Cells were treated Formulas I, II, III, or IV as nine point dose response dilution series from 10 uM to 1 nM. Cells were exposed to compounds and then cell viability was determined after either four (H69) or six (A2058) days as indicated using the CellTiter-Glo® luminescent cell viability assay (CTG; Promega, Madison, Wis., United States of America) following the manufacturer's recommendations. Plates were read on BioTek (Winooski, Vt.) Syngergy2 multi-mode plate reader. The Relative Light Units (RLU) were plotted as a result of variable molar concentration and data was analyzed using Graphpad (LaJolla, Californaia) Prism 5 statistical software to determine the EC50 for each compound.

[2] = system: H69 (human small cell lung cancer, Rb-negative) cells; assay: CellTiter-Glo cellular proliferation assay, H69; type: cell-based; conditions: NCI-H69, 96 h, four days
Protocol: as §1

[3] = system: HS68 cells; assay: G1 arrest (cellular G1 and S-phase) assay, propidium iodide flow cytometry; type: cell-based; conditions: Homo sapiens
Protocol: For determination of cellular fractions in various stages of the cell cycle following various treatments, HS68 cells (human skin fibroblast cell line (Rb-positive)) were stained with propidium iodide staining solution and run on Dako Cyan Flow Cytometer. The fraction of cells in G0-G1 DNA cell cycle versus the fraction in S-phase DNA cell cycle was determined using FlowJo 7.2.2 analysis.
Formulas I, II, III, and IV were tested for their ability to arrest HS68 cells at the G1 phase of the cell cycle.

[4] = system: mice exposed to peri-lethal and lethal TBI; conditions: compared to untreated controls; cited from earlier work
[5] = system: HSPC (LKS+) and myeloid progenitor cells (LKS−); conditions: single dose 150 mg/kg oral gavage, mice; cited from earlier work
[6] = system: RB-negative SCLC cell lines (H69, H82, H209, H345, NCI417, SHP-77); assay: Proliferation by EdU incorporation, RB-negative SCLC cell lines; type: cell-based; conditions: 24 hours; PD0332991 300 nM, Formula I and III 300 nM or 1000 nM
Protocol: (§2) SCLC cells were treated with DMSO or the indicated CDK4/6 inhibitor for 24 hours. The effect of CDK4/6 inhibition on proliferation was measured by EdU incorporation. An RB-intact, CDK4/6-dependent cell line (WM2664 or tHS68) and a panel of RB-negative SCLC cell lines (H69, H82, H209, H345, NCI417, or SHP-77) were analyzed for growth inhibition by the various CDK4/6 inhibitors.

[7] = system: CDK4/6 independent Rb-null melanoma cell line A2058; conditions: cited from earlier work
[8] = system: HSPC; conditions: in humans; cited from earlier work
[9] = system: WM2664 or tHS68; assay: Proliferation by EdU incorporation, RB-intact CDK4/6-dependent cell line; type: cell-based; conditions: 24 hours; WM2664 for PD0332991 (300 nM), tHS68 for Formula I and III (300 nM or 1000 nM)
Protocol: as §2

[10] = system: CDK4/6-dependent cell lines; conditions: cited from earlier work
[11] = system: HSPC; assay: PK half-life and HSPC cell cycle arrest of PD0332991 in humans; type: in vivo
[12] = Grade 3/4 neutropenia and leukopenia; cited from earlier work
[13] = system: human renal proximal tubule epithelial cells (Rb-positive); assay: Cellular wash-out experiment, renal cells; type: cell-based; conditions: 300 nM
Protocol: Alternatively, the same experiment was done using normal Renal Proximal Tubule Epithelial Cells (Rb-positive) obtained from American Type Culture Collection (ATCC, Manassas, Va.). Cells were grown in an incubator at 37° C. in a humidified atmosphere of 5% CO2 in Renal Epithelial Cell Basal Media (ATCC) supplemented with Renal Epithelial Cell Growth Kit (ATCC) in 37° C. humidified incubator.
Upon harvesting cells, samples were stained with propidium iodide staining solution and samples run on Dako Cyan Flow Cytometer. The fraction of cells in G0-G1 DNA cell cycle versus the fraction in S-phase DNA cell cycle was determined using FlowJo 7.2.2 analysis.

[14] = system: mice after total body irradiation; assay: Radiomitigation, survival after total body irradiation; type: in vivo
Protocol: Wild-type mice, young adult (8-12 weeks of age) C57BL/6 (The Jackson Laboratory) or C3H (Harlan Sprague-Dawley) animals were used. Animals were irradiated using a 137Cs AECL GammaCell 40 Irradiator (Atomic Energy of Canada) or a XRAD320 (Precision XRay Inc.) biological irradiator. Experiments were carried out using the 137Cs source, unless otherwise noted.

[15] = Metabolic stability in liver microsomes; type: in vitro ADME, and mouse; conditions: each of the species tested (human, monkey, dog, rat, mouse); 1 uM, 0.5 mg/mL microsomes
Protocol: Human, mouse, and dog liver microsomes were purchased from Xenotech, and Sprague-Dawley rat liver microsomes were prepared by Absorption Systems. The reaction mixture comprising 0.5 mg/mL of liver microsomes, 100 mM of potassium phosphate, pH 7.4, 5 mM of magnesium chloride, and 1 uM of test compound was prepared. The test compound was added into the reaction mixture at a final concentration of 1 uM. An aliquot of the reaction mixture (without cofactor) was incubated in shaking water bath at 37 deg. C. for 3 minutes. The control compound, testosterone, was run simultaneously with the test compound in a separate reaction. The reaction was initiated by the addition of cofactor (NADPH), and the mixture was then incubated in a shaking water bath at 37 deg. C. Aliquots (100 μL) were withdrawn at 0, 10, 20, 30, and 60 minutes for the test compound and 0, 10, 30, and 60 minutes for testosterone. […] Test compound samples were analyzed using the Orbitrap high resolution mass spectrometer to quantify the disappearance of parent test compound and detect the appearance of metabolites. […] Half-lives were calculated using GraphPad software, fitting to a single-phase exponential decay equation.
When calculated half-life was longer than the duration of the experiment, the half-life was expressed as > the longest incubation time. The calculated half-life is also listed in parentheses. […]

[16] = system: 456 (395 non-mutant) kinases; assay: DiscoveRx KINOMEscan profiling; type: binding; conditions: single concentration of 1000 nM
[17] = system: tHS68 cells; assay: Cell cycle arrest in CDK4/6-dependent cells, propidium iodide flow cytometry; type: cell-based
Excerpt: To test the ability of CDK4/6 inhibitors to induce a clean G1-arrest, a cell based screening method was used consisting of two CDK4/6-dependent cell lines (tHS68 and WM2664; Rb-positive) and one CDK4/6-independent (A2058; Rb-negative) cell line. […] At the conclusion of the experiment, cells were harvested, fixed, and stained with propidium iodide (a DNA intercalator), which fluoresces strongly red (emission maximum 637 nm) when excited by 488 nm light. Samples were run on Dako Cyan flow cytometer and >10,000 events were collected for each sample. Data were analyzed using FlowJo 2.2 software developed by TreeStar, Inc.

[18] = system: tHS68 cells; assay: g-H2A.X assay after irradiation; type: cell-based; conditions: 100, 300 or 1,000 nM after 6, 8 or 10 Gy
Protocol: (§3) DNA damage was determined using the g-H2A.X assay and apoptosis was determined with a Caspase 3/7 assay. For the g-H2AX assay, tHS68 cells were fixed and stained using the g-H2A.X Phosphorylation Assay Kit (Flow Cytometry; Millipore, Temecula, Calif.) by the manufacturer's instructions. g-H2AX-positive tHDF cells were then quantified using a CyAn ADP Analyzer (Beckman Coulter, Indianapolis, Ind.) and FlowJo analysis software (Version 7.2.2; Tree Star, Ashland, Oreg.). For the in vitro caspase 3/7 assay, tHDF cells were analyzed directly in the 96-well plates 24 hours after radiation or staurosporine treatment. Caspase 3/7 activation was measured using the Caspase-Glo 3/7 Assay System (Promega, Madison, Wis.) by following the manufacturer's instructions.
(§4) For the g-H2AX assay, 30,000 cells were plated per well in 12-well plates. For the caspase 3/7 assay, 1,000 cells were plated per well in 96-well white wall clear bottom plates. Cells were incubated at 37° C. in a humidified atmosphere of 5% CO2 for 24 hours and then irradiated at 6 Gy, 8 Gy, or 10 Gy.

[19] = system: tHDF cells; assay: Caspase 3/7 assay after irradiation; type: cell-based; conditions: 100, 300 or 1,000 nM after 6, 8 or 10 Gy
Protocol: as §3, §4

[20] = single oral dose 150 mg/kg 12 hours after exposure

EC50 [1]: > 3000 nM | EC50 [2]: > 3000 nM | EC50 [3]: 25 nM
Compound: O=C1NCC2(CCCCC2)n2c1cc1cnc(Nc3ccc(N4CCC(N5CCOCC5)CC4)cn3)nc12 [Formula IV, 2′-((5-(4-morpholinopiperidin-1-yl)pyridin-2-yl)amino)-7′,8′-dihydro-6′H-spiro[cyclohexane-1,9′-pyrazino[1′,2′:1,5]pyrrolo[2,3-d]pyrimidin]-6′-one]

EC50 [1]: 2610 nM | EC50 [2]: > 3000 nM | EC50 [3]: 100 nM
Compound: O=C1NCC2(CCCCC2)n2c1cc1cnc(Nc3ccc(N4CCNCC4)cn3)nc12 [Formula II, 2′-((5-(piperazin-1-yl)pyridin-2-yl)amino)-7′,8′-dihydro-6′H-spiro[cyclohexane-1,9′-pyrazino[1′,2′:1,5]pyrrolo[2,3-d]pyrimidin]-6′-one]

Compound: CC(=O)c1c(C)c2cnc(Nc3ccc(N4CCNCC4)cn3)nc2n(C2CCCC2)c1=O [PD0332991, 6-acetyl-8-cyclopentyl-5-methyl-2-(5-piperazin-1-yl-pyridin-2-ylammino)-8H-pyrido-[2,3-d]-pyrimidin-7-one]
HSPC protection and survival after TBI [4]: protect HSPCs and improve survival of mice | duration of sustained reduction in HSPC (LKS+) and myeloid progenitor (LKS−) EdU incorporation [5]: greater than 36 hours | time post oral dosing of return to baseline cell division [5]: 48 h | effect on growth (cells in S phase, EdU) of Rb-negative SCLC cell lines [6]: does not affect the growth | G1 arrest [7]: did not G1 arrest | protection from IR exposure [7]: failed to protect | PK half-life [8]: 27 h | effect on proliferation (cells in S phase, EdU) of Rb-positive cell line [9]: inhibits | IR protection [10]: exhibited IR protective characteristics | total time for normal bone marrow function to return [11]: ≥ 7 days | time to clear the compound ([11]; 5 half-lives × 27 hour half-life): 6 days | duration of cell cycle arrest of HSPC ([11]; single administration): approximately one week | patients requiring a dose interruption [12]: 71% | patients requiring a dose reduction [12]: 35% | return to baseline levels of cell division after wash out [13]: took significantly longer to return to baseline levels of cell division

EC50 [1]: 2690 nM | EC50 [2]: 2920 nM | EC50 [3]: 80 nM
Compound: CC(C)N1CCN(c2ccc(Nc3ncc4cc5n(c4n3)C3(CCCCC3)CNC5=O)nc2)CC1 [Formula III, 2′-((5-(4-isopropylpiperazin-1-yl)pyridin-2-yl)amino)-7′,8′-dihydro-6′H-spiro[cyclohexane-1,9′-pyrazino[1′,2′:1,5]pyrrolo[2,3-d]pyrimidin]-6′-one]
effect on growth (cells in S phase, EdU) of Rb-negative SCLC cell lines [6]: does not affect the growth | effect on proliferation (cells in S phase, EdU) of Rb-positive cell line [9]: inhibits

Compound: CN1CCN(c2ccc(Nc3ncc4cc5n(c4n3)C3(CCCCC3)CNC5=O)nc2)CC1 [Formula I, 2′-((5-(4-methylpiperazin-1-yl)pyridin-2-yl)amino)-7′,8′-dihydro-6′H-spiro[cyclohexane-1,9′-pyrazino[1′,2′:1,5]pyrrolo[2,3-d]pyrimidin]-6′-one]
survival after 7.5 Gy TBI, two doses ([14]; 150 mg/kg oral at 12 hours and 24 hours post TBI): Survival was also enhanced | survival after 7.2 Gy TBI [14, 20]: provided radiomitigation | survival after 7.5 Gy TBI [14, 20]: significant survival effect | EC50 [1]: > 3000 nM | half-life in liver microsomes [15]: shorter half-life than PD0332991 | number of 395 non-mutant kinases inhibited, threshold 65% ([16]; inhibitory threshold 65%): 92 | number of 395 non-mutant kinases inhibited, threshold 90% ([16]; inhibitory threshold 90%): 31 | number of 395 non-mutant kinases inhibited, threshold 99% ([16]; inhibitory threshold 99%): 6 | effect on growth (cells in S phase, EdU) of Rb-negative SCLC cell lines [6]: does not affect the growth | EC50 [2]: > 3000 nM | effect on proliferation (cells in S phase, EdU) of Rb-positive cell line [9]: inhibits | cells in S-phase at the highest concentration shown ([17]; tHS68, 24 hours, 28% at baseline): 6% | EC50 ([17]; tHS68 cells, 24 hours, read-out: G1 cell cycle arrest EC50): 80 nM | radiation induced DNA damage (H2AX foci) [18]: dose dependent decrease in radiation induced DNA damage | radiation induced apoptosis (caspase 3/7 activity) [19]: dose dependent decrease in radiation induced apoptosis | EC50 [3]: 100 nM
